Measurements taken from patent US8236956B2, “Cyclopamine analogues and methods of use thereof” (Infinity Pharmaceuticals, Inc., priority 2004, dated 2012).
Where two headings read alike, the source gives them in different places.

Experiments:
[1] = system: Hedgehog pathway; assay: C3H10T1/2 differentiation assay (alkaline phosphatase), inhibition of the Hedgehog pathway in cell culture; format: cell-based; conditions: Mus musculus
Description: Hedgehog pathway specific cancer cell killing effects may be ascertained using the following assay. C3H10T1/2 cells differentiate into osteoblasts when contacted with the sonic hedgehog peptide (Shh-N). Upon differentiation; these osteoblasts produce high levels of alkaline phosphatase (AP) which can be measured in an enzymatic assay (Nakamura et al., 1997 BBRC 237: 465). Compounds that block the differentiation of C3H10T1/2 into osteoblasts (a Shh dependent event) can therefore be identified by a reduction in AP production (van der Horst et al., 2003 Bone 33: 899). The assay details are described below. The results approximate (EC50 for inhibition) of the differentiation assay is shown below in Table 1.
Mouse embryonic mesoderm fibroblasts C3H10T1/2 cells (obtained from ATCC) were cultured in Basal MEM Media (Gibco/Invitrogen) supplemented with 10% heat inactivated FBS (Hyclone), 50 units/ml penicillin and 50 ug/ml streptomycin (Gibco/Invitrogen) at 37 C with 5% CO2 in air atmosphere.
C3H10T1/2 cells were plated in 96 wells with a density of 8×10^3 cells/well. Cells were grown to confluence (72 hrs). After sonic Hedgehog (250 ng/ml), (R&D Systems) and/or compound treatment, the cells were lysed in 110 µl of lysis buffer (50 mM Tris pH 7.4, 0.1% TritonX100), plates were sonicated and lysates spun through 0.2 um PVDF plates (Corning). 40 ul of lysates was assayed for AP activity in alkaline buffer solution (Sigma) containing 1 mg/ml p-Nitrophenyl Phosphate. After incubating for 30 min at 37 C, the plates were read on an Envision plate reader at 405 nm. Total protein was quantified with a BCA protein assay kit from Pierce according to manufacturer's instructions. AP activity was normalized against total protein.

[2] = system: psoriasis lesions; conditions: topical application; Tas et al., 2004 Dermatology 209: 126-131; cited from earlier work
[3] = C3H 10T1/2, C3H10T1/2 cells, sonic Hedgehog 250 ng/ml, AP activity normalized against total protein, approximate, read-out: Differentiation Assay EC50 (Approximate EC50 for Inhibition)
[4] = C3H 10T1/2, read-out: Differentiation Assay EC50 (Approximate EC50 for Inhibition)

`CC1=C2C[C@H]3[C@@H](CCC4=CC(=O)CC[C@@]43C)[C@@H]2CC[C@@]2(C1)O[C@@H]1C[C@H](C)CN(Cc3ccc(Oc4ccccc4)cc3)[C@H]1[C@H]2C` [Compound 37] gave an EC50 [1, 3] of over 500 nM.
`CC1=C2C[C@H]3[C@@H](CC=C4C[C@@H](O)CC[C@@]43C)[C@@H]2CC[C@@]2(C1)O[C@@H]1C[C@H](C)CN(C)[C@H]1[C@H]2C` [Compound 20] gave an EC50 [1, 4] of over 500 nM.
`C[C@@H]1CN[C@H]2[C@@H](C)[C@@]3(CC[C@H]4[C@@H]5CCC6=CC(=O)CC[C@]6(C)[C@H]5CC45CC53C)O[C@@H]2C1` (some centres unmarked) [Compound 11] showed an EC50 [1, 4] of over 500 nM.
With `CC1=C2C[C@H]3[C@@H](CCC4=CC(=O)CC[C@@]43C)[C@@H]2CC[C@@]2(C1)O[C@@H]1C[C@H](C)CN(Cc3ccccc3)[C@H]1[C@H]2C` [Compound 35] the EC50 [1, 3] was under 200 nM.
With `C[C@H]1C[C@H]2O[C@]3(CC[C@H]4[C@@H]5CCC6=CC(=O)CC[C@]6(C)[C@H]5CC45CC53C)[C@H](C)[C@@H]2N(CCNC(=O)CCCCCNC(=O)CCc2ccccc2)C1` (some centres unmarked) [Compound 17] the EC50 [1, 3] was under 200 nM.
`CC1=C2C[C@H]3[C@@H](CCC4=CC(=O)CC[C@@]43C)[C@@H]2CC[C@@]2(C1)O[C@@H]1C[C@H](C)CN(CCO)[C@H]1[C@H]2C` [Compound 39] gave an EC50 [1, 4] of over 500 nM.
`CC1=C2C[C@H]3[C@@H](CCC4=CC(=O)CC[C@@]43C)[C@@H]2CC[C@@]2(C1)O[C@@H]1C[C@H](C)CN(CCNC(=O)CCc3ccccc3)[C@H]1[C@H]2C` [Compound 21] gave an EC50 [1, 4] of under 200 nM.
Compound `C[C@H]1C[C@H]2O[C@]3(CC[C@H]4[C@@H]5CC=C6C[C@@H](O)CC[C@]6(C)[C@H]5CC45CC53C)[C@H](C)[C@@H]2N(CCNC(=O)CCCCCNC(=O)CCc2ccccc2)C1` (some centres unmarked) [Compound 4] has an EC50 [1, 3] of under 200 nM.
In the case of `CC1=C2C[C@H]3[C@@H](CC=C4C[C@@H](O)CC[C@@]43C)[C@@H]2CC[C@@]2(C1)O[C@@H]1C[C@H](C)CN[C@H]1[C@H]2C` [Compound 19], the EC50 [1, 4] is reported as 200 to 500 nM.
Work on `COCCOCCN1C[C@@H](C)C[C@H]2O[C@]3(CC[C@@H]4C(=C(C)C3)C[C@H]3C4CCC4=CC(=O)CC[C@@]43C)[C@H](C)[C@@H]21` (some centres unmarked) [Compound 29] yielded an EC50 [1, 3] of under 200 nM.
`C[C@@H]1CN[C@H]2[C@@H](C)[C@@]3(CC[C@H]4[C@@H]5CC=C6C[C@@H](O)CC[C@]6(C)[C@H]5CC45CC53C)O[C@@H]2C1` (some centres unmarked) [Compound 1] gave an EC50 [1, 4] of over 500 nM.
Work on `CC1=C2C[C@H]3[C@@H](CCC4=CC(=O)CC[C@@]43C)[C@@H]2CC[C@@]2(C1)O[C@@H]1C[C@H](C)CN(CC(=O)NCCCc3ccccc3)[C@H]1[C@H]2C` [Compound 47] yielded an EC50 [1, 3] of 200 to 500 nM.
Work on `CC1=C2C[C@H]3[C@@H](CCC4=CC(=O)CC[C@@]43C)[C@@H]2CC[C@@]2(C1)O[C@@H]1C[C@H](C)CN(CCOCCOCc3ccccc3)[C@H]1[C@H]2C` [Compound 43] yielded an EC50 [1, 3] of 200 to 500 nM.
Work on `COCCOCCN1C[C@@H](C)C[C@H]2O[C@]3(CC[C@@H]4C(=C(C)C3)C[C@H]3[C@H]4CCC4=CC(=O)CC[C@@]43C)[C@H](C)[C@@H]21` [Compound 41] yielded an EC50 [1, 3] of under 200 nM.
For `CC1=C2C[C@H]3[C@@H](CC=C4C[C@@H](O)CC[C@@]43C)[C@@H]2CC[C@]12O[C@@H]1C[C@H](C)CN[C@H]1[C@H]2C` [cyclopamine], the “effect on psoriasis lesions” value [2] is given as “full or partial regression of the lesion”.
With `COCCOCCOCCN1C[C@@H](C)C[C@H]2O[C@]3(CC[C@@H]4C(=C(C)C3)C[C@H]3[C@H]4CCC4=CC(=O)CC[C@@]43C)[C@H](C)[C@@H]21` [Compound 33] the EC50 [1, 3] was under 200 nM.
For `CC1=C2C[C@H]3C(CC=C4C[C@@H](O)CC[C@@]43C)[C@@H]2CC[C@@]2(C1)O[C@@H]1C[C@H](C)CN(CCCl)[C@H]1[C@H]2C` (some centres unmarked) [Compound 27], the EC50 [1, 3] was over 500 nM.
Work on `CC1=C2C[C@H]3[C@@H](CCC4=CC(=O)CC[C@@]43C)[C@@H]2CC[C@@]2(C1)O[C@@H]1C[C@H](C)CN(CCNS(=O)(=O)CCc3ccccc3)[C@H]1[C@H]2C` [Compound 24] yielded an EC50 [1, 3] of 200 to 500 nM.
Compound `CC1=C2C[C@H]3[C@@H](CC=C4C[C@@H](O)CC[C@@]43C)[C@@H]2CC[C@@]2(C1)O[C@@H]1C[C@H](C)CN(CCNC(=O)CNC(=O)CCc3ccccc3)[C@H]1[C@H]2C` [Compound 30] has an EC50 [1, 4] of under 200 nM.
`CC1=C2C[C@H]3C(CCC4=CC(=O)CC[C@@]43C)[C@@H]2CC[C@@]2(C1)O[C@@H]1C[C@H](C)CN(CCCl)[C@H]1[C@H]2C` (some centres unmarked) [Compound 28] gave an EC50 [1, 3] of over 500 nM.
Work on `CC1=C2C[C@H]3[C@@H](CCC4=CC(=O)CC[C@@]43C)[C@@H]2CC[C@@]2(C1)O[C@@H]1C[C@H](C)CN[C@H]1[C@H]2C` [Compound 18] yielded an EC50 [1, 3] of under 200 nM.
For `COCCOCCOCCOCCN1C[C@@H](C)C[C@H]2O[C@]3(CC[C@@H]4C(=C(C)C3)C[C@H]3[C@H]4CCC4=CC(=O)CC[C@@]43C)[C@H](C)[C@@H]21` [Compound 31], the EC50 [1, 3] was under 200 nM.
In the case of `CC1=C2C[C@H]3[C@@H](CCC4=CC(=O)CC[C@@]43C)[C@@H]2CC[C@@]2(C1)O[C@@H]1C[C@H](C)CN(CCN(C)C)[C@H]1[C@H]2C` [Compound 45], the EC50 [1, 4] is reported as 200 to 500 nM.
